Measured values: patent US12435057B2, “Triazole carboxylic acids as LPA antagonists” (BRISTOL-MYERS SQUIBB COMPANY, priority 2019, dated 2025)
Where a name gives a salt, the structure may show the parent alone.

molecular target: T1, human LPA1 (Homo sapiens, UniProt Q92633); test: LPA1 functional antagonist assay (calcium flux); format: cell-based; details: CHO cells overexpressing human LPA1; inhibition of calcium flux induced by 10 nM LPA; read-out: hLPA1 IC50
T1 construct: expressed in transfected cells; host or cells: Chinese hamster ovary (CHO) cells
Description: The effectiveness of compounds of the present invention as LPA1 inhibitors can be determined in an LPA1 functional antagonist assay as follows: • Chinese hamster ovary cells overexpressing human LPA1 were plated overnight (15,000 cells/well) in poly-D-lysine coated 384-well microplates (Greiner bio-one, Cat #781946) in DMEM/F12 medium (Gibco, Cat #11039). Following overnight culture, cells were loaded with calcium indicator dye (AAT Bioquest Inc, Cat #34601) for 30 minutes at 37° C. The cells were then equilibrated to room temperature for 30 minutes before the assay. Test compounds solubilized in DMSO were transferred to 384 well non-binding surface plates (Corning, Cat #3575) using the Labcyte Echo acoustic dispense and diluted with assay buffer [[…] with calcium/magnesium (Gibco Cat #14025-092), 20 mM HEPES (Gibco Cat #15630-080) and 0.1% fatty acid free BSA (Sigma Cat #A9205)] to a final concentration of 0.5% DMSO. Diluted compounds were added to the cells by FDSS6000 (Hamamatsu) at final concentrations ranging from 0.08 nM to 5 μM. and were then incubated for 20 min at room temperature at which time LPA (Avanti Polar Lipids Cat #857130C) was added at final concentrations of 10 nM to stimulate the cells. The compound IC50 value was defined as the concentration of test compound which inhibited 50% of the calcium flux induced by LPA alone. IC50 values were determined by fitting data to a 4-parameter logistic equation (GraphPad Prism, San Diego CA). b. In Vivo Assays LPA Challenge with Plasma Histamine Evaluation.

T1 sequence (Q92633 whole entry): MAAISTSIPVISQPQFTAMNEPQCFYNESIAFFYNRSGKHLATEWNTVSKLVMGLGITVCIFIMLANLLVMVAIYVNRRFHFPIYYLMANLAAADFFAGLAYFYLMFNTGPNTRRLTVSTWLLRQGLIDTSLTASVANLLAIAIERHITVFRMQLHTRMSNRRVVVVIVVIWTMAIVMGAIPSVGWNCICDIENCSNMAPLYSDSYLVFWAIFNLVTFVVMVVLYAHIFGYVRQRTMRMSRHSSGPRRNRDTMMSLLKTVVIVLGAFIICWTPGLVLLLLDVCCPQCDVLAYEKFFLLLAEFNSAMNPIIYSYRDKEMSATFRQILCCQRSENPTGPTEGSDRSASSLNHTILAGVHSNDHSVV

| SMILES | IC50 [nM] |
| --- | --- |
| Cc1nc(-c2nnn(C)c2COC(=O)N(C)CC2CCC2)ccc1O[C@H]1CC2C[C@H]2[C@@H](C(=O)O)C1 (single isomer, unassigned) [Example 9] | 582 |
| Cc1nc(-c2nnn(C)c2COC(=O)N(C)CC2CCC2)ccc1O[C@H]1CCC[C@]2(C(=O)O)C[C@H]12 (single isomer, unassigned) [Example 12] | 278 |
| Cc1nc(-c2nnn(C)c2COC(=O)N(C)CC2CCC2)ccc1O[C@@H]1CC[C@H]2C(C(=O)O)[C@@H]12 (single isomer, unassigned) [Example 42] | 619 |
| Cc1nc(-c2nnn(C)c2COC(=O)N(C)CC2CCC2)ccc1O[C@H]1CC[C@@H]2[C@@H](C(=O)O)[C@@H]21 (single isomer, unassigned) [Example 46] | 2010 |
| CCCN(C)C(=O)OCc1c(-c2ccc(O[C@H]3C[C@H](C(=O)O)[C@@H]4C[C@@H]43)c(C)n2)nnn1C [Example 13] | 793 |
| Cc1nc(-c2nnn(C)c2CNc2noc(CC3CC3)n2)ccc1O[C@H]1C[C@H](C(=O)O)[C@@H]2C[C@@H]21 [Example 15] | 1050 |
| Cc1nc(-c2nnn(C)c2Cn2nncc2CC2CCCC2)ccc1O[C@H]1COC[C@H](C(=O)O)C1 [Example 25] | 931 |
| Cc1nc(-c2nnn(C)c2Cn2cc(CC3CCCC3)nn2)ccc1O[C@H]1COC[C@H](C(=O)O)C1 [Example 26] | 772 |
| Cc1nc(-c2nnn(C)c2COC(=O)N(C)Cc2ccccc2)ccc1O[C@H]1COC[C@@H](C(=O)O)C1 [Example 29] | 594 |
| Cc1nc(-c2nnn(C)c2COC(=O)N(C)CC2CCC2)ccc1O[C@H]1COC[C@@H](C(=O)O)C1 [Example 32] | 348 |
| CCCCN(C)C(=O)OCc1c(-c2ccc(O[C@H]3CCO[C@@H](C(=O)O)C3)c(C)n2)nnn1C [Example 35] | 644 |
| Cc1nc(-c2nnn(C)c2COC(=O)N(C)C2CCCC2)ccc1O[C@H]1CCO[C@@H](C(=O)O)C1 [Example 36] | 713 |
| CCCN(C)C(=O)OCc1c(-c2ccc(O[C@H]3CCO[C@H](C(=O)O)C3)c(C)n2)nnn1C [Example 38] | 2010 |
| Cc1nc(-c2nnn(C)c2COC(=O)N(C)C2CCCC2)ccc1O[C@H]1CCO[C@H](C(=O)O)C1 [Example 39] | 313 |
| Cc1nc(-c2nnn(C)c2COC(=O)N(C)CC2CC2)ccc1O[C@@H]1CC[C@H]2C(C(=O)O)[C@@H]12 (some centres unmarked) [Example 59] | 313 |
| Cc1nc(-c2nnn(C)c2COC(=O)N(C)CC(C)C)ccc1O[C@@H]1CC[C@H]2C(C(=O)O)[C@@H]12 (some centres unmarked) [Example 60] | 313 |
| CN(C(=O)OCc1c(-c2ccc(OC3CC4C(C3)C4C(=O)O)cn2)nnn1C)C1CCCC1 (centres unmarked) [Example 65] | 440 |
| CN(CC1CCC1)C(=O)OCc1c(-c2ccc(OC3CC4C(C3)C4C(=O)O)cn2)nnn1C (centres unmarked) [Example 66] | 322 |

Now from value to compound:

| IC50 [nM] | SMILES |
| --- | --- |
| 275 | Cc1nc(-c2nnn(C)c2CNC(=O)OCC(C)(C)C)ccc1O[C@@H]1CCC2C(C(=O)O)C21 (some centres unmarked) [Example 54] |
| 264 | Cc1nc(-c2nnn(C)c2COC(=O)NCc2ccccc2)ccc1O[C@@H]1CC[C@H]2C(C(=O)O)[C@@H]12 (some centres unmarked) [Example 63] |
| 262 | Cc1nc(-c2nnn(C)c2COC(=O)N(C)CC2CCC2)ccc1OC1CC2C(C1)C2C(=O)O (centres unmarked) [Example 67] |
| 236 | CCCCN(C)C(=O)OCc1c(-c2ccc(O[C@H]3COC[C@@H](C(=O)O)C3)c(C)n2)nnn1C [Example 30] |
| 225 | CCCCN(C)C(=O)OCc1c(-c2ccc(O[C@H]3CCO[C@H](C(=O)O)C3)c(C)n2)nnn1C [Example 37] |
| 222 | Cc1nc(-c2nnn(C)c2COC(=O)N(C)CCC(C)C)ccc1O[C@@H]1COC[C@@H](C(=O)O)C1 [Example 20] |
| 178 | Cc1nc(-c2nnn(C)c2COC(=O)N(C)Cc2ccccc2)ccc1O[C@@H]1COC[C@@H](C(=O)O)C1 [Example 22B] |
| 174 | CCCCN(C)C(=O)OCc1c(-c2ccc(O[C@@H]3COC[C@@H](C(=O)O)C3)c(C)n2)nnn1C [Example 18] |
| 168 | Cc1nc(-c2nnn(C)c2COC(=O)N(C)CC2CCC2)ccc1O[C@@H]1COC[C@@H](C(=O)O)C1 [Example 21] |
| 160 | Cc1nc(-c2nnn(C)c2COC(=O)N(C)CC2CCCC2)ccc1O[C@@H]1COC[C@@H](C(=O)O)C1 [Example 22A] |
| 158 | Cc1nc(-c2nnn(C)c2COC(=O)N(C)CC2CCC2)ccc1O[C@H]1CCO[C@H](C(=O)O)C1 [Example 40] |
| 155 | CCCCOC(=O)NCc1c(-c2ccc(O[C@@H]3CCC4C(C(=O)O)C43)c(C)n2)nnn1C (some centres unmarked) [Example 56] |
| 151 | CCCCCN(C)C(=O)OCc1c(-c2ccc(O[C@@H]3COC[C@@H](C(=O)O)C3)c(C)n2)nnn1C [Example 19] |
| 145 | Cc1nc(-c2nnn(C)c2COC(=O)N(C)C2CCCC2)ccc1O[C@@H]1CC[C@H]2C(C(=O)O)[C@@H]12 (some centres unmarked) [Example 62] |
| 143 | CCCCN(C)C(=O)OCc1c(-c2ccc(O[C@H]3C[C@H](C(=O)O)[C@@H]4C[C@@H]43)c(C)n2)nnn1C [Example 14] |
| 130 | Cc1nc(-c2nnn(C)c2COC(=O)N(C)CC2CCC2)ccc1O[C@@H]1CCC[C@@]2(C(=O)O)C[C@@H]12 (single isomer, unassigned) [Example 11] |

| IC50 [nM] | SMILES |
| --- | --- |
| 125 | Cc1nc(-c2nnn(C)c2NC(=O)OCc2ccccc2)ccc1O[C@@H]1CC[C@H]2C(C(=O)O)[C@@H]12 (some centres unmarked) [Example 64] |
| 114 | CN(C(=O)OCc1c(-c2ccc(O[C@@H]3CC[C@H]4C(C(=O)O)[C@@H]34)cn2)nnn1C)C1CCCC1 (some centres unmarked) [Example 71] |
| 110 | Cc1nc(-c2nnn(C)c2Cn2ncc(CC3CCCC3)n2)ccc1O[C@H]1COC[C@H](C(=O)O)C1 [Example 27] |
| 98 | Cc1nc(-c2nnn(C)c2COC(=O)N(C)C2CCC2)ccc1O[C@@H]1CC[C@H]2C(C(=O)O)[C@@H]12 (some centres unmarked) [Example 61] |
| 92 | Cc1nc(-c2nnn(C)c2COC(=O)N(C)CC2CCC2)ccc1O[C@@H]1CC[C@H]2C(C(=O)O)[C@@H]12 (single isomer, unassigned) [Example 45] |
| 83 | Cc1nc(-c2nnn(C)c2CNC(=O)OC2CCCC2)ccc1O[C@@H]1CCC2C(C(=O)O)C21 (some centres unmarked) [Example 55] |
| 81 | CN(CC1CCC1)C(=O)OCc1c(-c2ccc(O[C@@H]3CC[C@H]4C(C(=O)O)[C@@H]34)cn2)nnn1C (some centres unmarked) [Example 70] |
| 65 | Cc1nc(-c2nnn(C)c2COC(=O)N(C)CC2CCC2)ccc1O[C@@H]1CC[C@H]2C(C(=O)O)[C@@H]12 (single isomer, unassigned) [Example 44, TFA Salt] |
| 60 | Cc1nc(-c2nnn(C)c2COC(=O)N(C)CC2CCC2)ccc1O[C@@H]1C[C@H](C(=O)O)C[C@@H]2C[C@@H]21 [Example 73] |
| 46 | CCCCN(C)C(=O)OCc1c(-c2ccc(O[C@@H]3CC[C@H]4C(C(=O)O)[C@@H]34)c(C)n2)nnn1C (some centres unmarked) [Example 58] |
| 35 | CCCOc1ccnc(NCc2c(-c3ccc(O[C@@H]4CC[C@H]5C(C(=O)O)[C@@H]45)c(C)n3)nnn2C)n1 (some centres unmarked) [Example 57] |
| 16 | Cc1nc(-c2nnn(C)c2CNC(=O)OCc2ccccc2)ccc1O[C@@H]1CCC2C(C(=O)O)C21 (some centres unmarked) [Example 53] |
| 15 | Cc1nc(-c2nnn(C)c2COC(=O)N(C)CC2CCC2)ccc1O[C@H]1CC[C@@H]2[C@@H](C(=O)O)[C@@H]21 (single isomer, unassigned) [Example 43] |
| 2.29 | CCCCCN(C)C(=O)OCc1c(-c2ccc(O[C@H]3COC[C@@H](C(=O)O)C3)c(C)n2)nnn1C [Example 31] |
| 1.43 | Cc1nc(-c2nnn(C)c2NC(=O)OCC2CC2)ccc1O[C@H]1C[C@H](C(=O)O)[C@@H]2C[C@@H]21 [Example 16] |

test system: IPF patients; test: not given; details: 26-week clinical trial in IPF patients; cited from earlier work

| SMILES | rate of FVC (forced vital capacity) decline |
| --- | --- |
| Cc1noc(-c2ccc(-c3ccc(C4(C(=O)O)CC4)cc3)cc2)c1NC(=O)O[C@H](C)c1ccccc1 [BMS-986020] | significantly reduce |

test system: human foetal lung fibroblasts; test: not given; details: cited from earlier work

| SMILES | chemotaxis of human foetal lung fibroblasts induced by BAL from IPF patients |
| --- | --- |
| Cc1noc(-c2ccc(CSCCC(=O)O)cc2)c1NC(=O)OC(C)c1ccccc1Cl (centres unmarked) [Ki16425] | blocked |

test system: UUO mice; test: not given; details: UUO mice treated with antagonist, compared with LPA1 (-/-) mice; cited from earlier work

| SMILES | development of renal fibrosis |
| --- | --- |
| Cc1noc(-c2ccc(CSCCC(=O)O)cc2)c1NC(=O)OC(C)c1ccccc1Cl (centres unmarked) [Ki16425] | closely resembled the profile of LPA1 (−/−) mice |

test system: mouse epithelial renal cell line, MCT; test: not given; details: co-treatment with LPA, MCT cells; cited from earlier work

| SMILES | LPA-induced expression of CTGF |
| --- | --- |
| Cc1noc(-c2ccc(CSCCC(=O)O)cc2)c1NC(=O)OC(C)c1ccccc1Cl (centres unmarked) [Ki16425] | almost completely suppressed |

test system: pancreatic cancer cell lines; test: not given; details: highly peritoneal metastatic pancreatic cancer cell line; cited from earlier work

| SMILES | LPA-induced and ascites-induced invasion activity |
| --- | --- |
| Cc1noc(-c2ccc(CSCCC(=O)O)cc2)c1NC(=O)OC(C)c1ccccc1Cl (centres unmarked) [Ki16425] | blocked |

same assay, conditions: pancreatic cancer cell lines; cited from earlier work

| SMILES | in vitro migration in response to LPA and ascites from pancreatic cancer patients |
| --- | --- |
| Cc1noc(-c2ccc(CSCCC(=O)O)cc2)c1NC(=O)OC(C)c1ccccc1Cl (centres unmarked) [Ki16425] | effectively blocked |

test system: nerve-injured mice; test: not given; details: pretreatment; cited from earlier work

| SMILES | allodynia and hyperalgesia |
| --- | --- |
| C[C@@H](N)[C@H]1CC[C@H](C(=O)Nc2ccncc2)CC1 [Example Y-27632] | completely abolished |
